# According to article PMC7557402, “Evaluation of Nucleoside Analogs as Antimicrobials Targeting Unique Enzymes in Borrelia burgdorferi” (Pathogens, 2020):
# “And” between values parts separate entries of the source, which are not always exact repeats. Identical values can stand only once. Like-named read-outs stand apart in the source and are kept apart here.
# What was measured:
# B. burgdorferi N40 [1] = test: Subculture without inhibitor after 7 days of treatment: bacteriostatic versus bactericidal; format: cell-based, Borrelia burgdorferi; settings: for Inhibitor Activity: 7 days of treatment, then subculture
# Method: After 7 days of treatment, a 5 µL aliquot from each treatment tube (and untreated control) was added to 1 mL of BSKII-RS medium to allow any remaining viable spirochetes in the sample to grow. After incubation for 7–21 days at 33 °C, the survival of the spirochetes was determined using dark-field microscopy to observe motility and by employing bioluminescence measurements to assess vitality of the recovered culture.
# To further differentiate between bacteriostatic versus bactericidal activities of MTAN inhibitors, we subcultured drug treated spirochetes in the absence of inhibitors to recover any live B. burgdorferi remaining after seven days of inhibitor treatment (summarized in Table 4). If non-motile spirochetes from treated cultures were able to grow back, the inhibitor was determined to have a bacteriostatic effect at the selected concentration. […] Spirochete survival was determined by both dark-field microscopy and bioluminescence measurements. Microscopic examination allowed assessment of motility of the spirochetes whereas bioluminescence assays assessed recovery and viability of B. burgdorferi cells. […] By comparison, a reduction in bioluminescence compared to the untreated control was observed after treatment with dEt-ImmA at a 0.4 µM or greater concentration. […] After seven days of treatment, live spirochetes were only recovered when concentrations of ≤0.4 µM were used for dEt-ImmA and IADO.
# Bgp [2] = target: T1, Bgp (Borreliella burgdorferi, UniProt Q9F952); set-up: method as in Cornell et al., 2020 [18]; settings: reported previously, ref Cornell et al., 2020 [18], cited from earlier work
# T1 sequence (Q9F952 entry or part of it): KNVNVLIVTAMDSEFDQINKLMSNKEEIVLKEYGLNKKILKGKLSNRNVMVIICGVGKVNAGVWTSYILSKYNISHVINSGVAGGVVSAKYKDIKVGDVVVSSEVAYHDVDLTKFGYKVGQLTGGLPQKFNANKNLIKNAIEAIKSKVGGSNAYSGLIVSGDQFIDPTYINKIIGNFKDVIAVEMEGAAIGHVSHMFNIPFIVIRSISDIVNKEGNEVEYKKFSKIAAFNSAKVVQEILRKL
# MtnN [3] = target: T2, MtnN (Borreliella burgdorferi, UniProt O50860); set-up: method as in Cornell et al., 2020 [18]; settings: reported previously, ref Cornell et al., 2020 [18], cited from earlier work
# T2 sequence (O50860 entry or part of it): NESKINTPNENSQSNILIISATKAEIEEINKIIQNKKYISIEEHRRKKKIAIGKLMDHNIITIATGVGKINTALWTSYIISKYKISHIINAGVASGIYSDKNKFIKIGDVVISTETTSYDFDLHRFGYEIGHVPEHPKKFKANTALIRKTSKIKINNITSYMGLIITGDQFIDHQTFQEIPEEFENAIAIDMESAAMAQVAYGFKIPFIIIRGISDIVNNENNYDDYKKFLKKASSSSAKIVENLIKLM
# Pfs [4] = target: T3, Pfs (Borreliella burgdorferi, UniProt O50162); set-up: method as in Cornell et al., 2020 [18]; settings: reported previously, ref Cornell et al., 2020 [18], cited from earlier work
# T3 sequence (O50162 entry or part of it): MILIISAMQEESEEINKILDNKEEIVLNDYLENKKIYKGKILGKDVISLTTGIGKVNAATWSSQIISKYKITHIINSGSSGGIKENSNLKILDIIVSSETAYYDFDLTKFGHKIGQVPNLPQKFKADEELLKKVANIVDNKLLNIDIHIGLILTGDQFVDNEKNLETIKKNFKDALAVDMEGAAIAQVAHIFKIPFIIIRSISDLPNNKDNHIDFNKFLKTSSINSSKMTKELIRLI
# Bgp [5] = target: T1, Bgp; test: MTAN spectrophotometric activity assay (specific activity, Km); format: biochemical, Borrelia burgdorferi; settings: for Specific Activity: pH 7, 1 U = 1 µmol MTA hydrolyzed per minute; for % Max Specific Activity: relative to MTA as a substrate
# Method: (§1) Recombinant MTANs were expressed and purified as previously described. Briefly, overnight 10 mL cultures of recombinant E. coli BL21(DE3) pLysS cells containing engineered pET30a expression plasmids for Bgp, MtnN or Pfs were grown at 37 °C with shaking (150 rpm) in LB broth supplemented with 50 µg/mL kanamycin and 0.5% glucose. The culture was diluted 1:50 in fresh medium and incubated at 37 °C with shaking (150 rpm) until the absorbance (600 nm) reached 0.4–0.6. Protein expression was induced with the addition of isopropyl β-D-1-thiogalactopyranoside (IPTG) to a final concentration of 1 mM and continued overnight incubation with shaking at 30 °C. Cells were harvested by centrifugation (10,000× g/15 min), and the pellet was washed once with ice-cold lysis buffer (50 mM sodium phosphate, pH = 8.0, 300 mM NaCl, 10 mM imidazole, 2mM β mercaptoethanol). Harvested cell pellets were resuspended in 10 mL fresh lysis buffer and lysed by sonication on ice using a Misonix Sonicator 300 (power setting 7, pulse 30 s, 1 min cooling with total sonication for 2.5 min). The cell lysates were centrifuged at 10,000× g for 15 min at 4 °C to remove debris, and the lysate was further filtered through a […] syringe filter to obtain a clear extract. Recombinant N-terminal hexahistidine tagged proteins were purified from the lysate using HisPur™ affinity columns (Thermo Scientific) according to the manufacturer’s specifications, and specifically eluted with 250 mM imidazole containing buffer (pH = 7). Eluted materials were analyzed by SDS-PAGE and Coomassie blue staining and found to be >95% homogeneous. Enzyme concentrations were determined using UV scans on a Cary100 spectrophotometer (Agilent) to determine the absorbance at 280 nm and applying extinction coefficients (0.1%) of 0.594 (Bgp), 0.637 (MtnN), and 0.404 (Pfs). Enzyme stocks (1 mg/mL) were prepared in 20% glycerol and stored at −80 °C.
# (§2) Enzyme specific activities were determined using previously reported optimal pH conditions (50 mM sodium phosphate, pH = 7, for Bgp, MtnN; 50 mM sodium phosphate-citrate, pH = 5, for Pfs) and a spectrophotometric activity assay that measures the decrease in UV absorbance at 275 nm that occurs when MTA is cleaved to 5-methylthioribose and adenine (ε275 = 1.6 mM^−1cm^−1). The extinction coefficients for cleavage of other nucleosides were experimentally validated and found to be the same for MSeA, FSBA, and IADO (ε275 = 1.6 mM^−1cm^−1). Due to the added UV absorbance imparted by the 5′ purine group found in PurTA, the enzyme reactions were followed spectrophotometrically at 260 nm using the experimentally determined extinction coefficient of ε260 = 5.6 mM^−1cm^−1. Enzyme specific activities for MTA were generally 1–2 U/mg (1 U = µmol MTA hydrolyzed/min). The enzyme specific activities for other nucleosides were determined and reported in U/mg and as the % max specific activity (relative to MTA at 100%).
# (§3) Kinetic constants have been previously reported for MTA [18]. As MSeA was also an efficient substrate for the B. burgdorferi nucleosidases, kinetic constants were determined using the activity assay described above, varying the nucleoside concentrations from 1 to 20 µM, and fitting the data on substrate-velocity plots to the Michaelis–Menten equation using GraphPad Prism (version 6):(1) Vo=Vmax[S]/Km+[S]
# MtnN [6] = target: T2, MtnN; test: as above; format: biochemical, Borrelia burgdorferi; settings: for Specific Activity: pH 7, 1 U = 1 µmol MTA hydrolyzed per minute; for % Max Specific Activity: relative to MTA as a substrate
# Method: as §1, §2, §3
# Pfs [7] = target: T3, Pfs; test: as above; format: biochemical, Borrelia burgdorferi; settings: for Specific Activity: pH 5, 1 U = 1 µmol MTA hydrolyzed per minute; for % Max Specific Activity: relative to MTA as a substrate
# Method: as §1, §2, §3
# Bgp [8] = target: T1, Bgp; set-up: method as in Cornell et al., 2020 [18]; settings: reported previously, ref Cornell et al., 2020 [18], read-out: Km (Michaelis constant); cited from earlier work
# MtnN [9] = target: T2, MtnN; settings: reported previously, ref Cornell et al., 2020 [18], read-out: Km (Michaelis constant); cited from earlier work
# Pfs [10] = target: T3, Pfs; settings: reported previously, ref Cornell et al., 2020 [18], read-out: Km (Michaelis constant); cited from earlier work
# [11] = system: B. burgdorferi strain N40; test: microbe, parasite or virus in culture; format: cell-based, Borrelia burgdorferi; settings: 24 h treatment; calculated from graphs
# Method: B. burgdorferi N40 strain carrying a firefly luciferase gene (Bbluc), which is a derivative of the N40D10/E9 clone, was used in this study and is labeled as N40 throughout. N40 was cultured at 33 °C in Barbour-Stoenner-Kelly-II (BSK-II) medium supplemented with 6% rabbit serum (BSKII-RS). Bacterial counts were determined under 400× magnification using a hemocytometer and a dark field microscope.
# The luciferase expressing B. burgdorferi N40 strain was grown to a density of ~10^8 spirochetes/mL and divided into two aliquots. One aliquot was incubated at 60 °C for 30 min to kill the spirochetes. […] The culture was mixed with the substrate by shaking in the dark, incubated at 37 °C for 5 min in a Spectramax M2 microplate reader (Molecular Devices, San Jose, CA, USA) and the bioluminescence measured. […]
# Nucleosides and nucleoside analogs were prepared as sterile 1 mM stock solutions in distilled water (MSeA, IADO, FSBA, and dEt-ImmA) or in DMSO (PurTA). […] Photon emission due to luciferase activity was measured at three time points, after: (a) 24 h, (b) 72 h, and (c) 7 days of treatments to observe the effect of inhibitors on B. burgdorferi culture. At the end of each time point, bioluminescence was measured as described above. […]
# B. burgdorferi N40 [12] = test: Dark-field microscopy of treated cultures (motility); format: cell-based, Borrelia burgdorferi; settings: 24 h treatment
# Method: The infectious N40 B. burgdorferi culture was treated with ten 2-fold serial dilutions of ampicillin overnight. Stocks of ampicillin at 200 µg/mL to 0.385 µg/mL concentrations were used to prepare different dilutions for treatment (final 10 to 0.0195 µg/well). The bioluminescence standard curve (Figure 3) was used to calculate the percentage of physiologically compromised B. burgdorferi after treatment with different ampicillin concentration for 24 h. Ampicillin treatment affected the viability of the spirochetes (Figure 4A). […] A prolonged incubation could increase killing by ampicillin at lower doses of drug. In addition to bioluminescence, the cultures were also observed under dark-field microscopy to examine viability.
# [13] = system: Borrelia MTANs (Bgp, MtnN, Pfs); test: MTAN activity/kinetics, across the nucleosidases; format: biochemical
# Method: as §2, §3
# For the other compounds, inhibition constants (Ki’s) were determined as previously described, using an MTA concentration of 100 µM and varying the inhibitor concentration from 0 to 100 µM. The inhibited velocity (Vo’) and uninhibited velocity (Vo) values were determined, and the ratio of Vo’/Vo plotted as a function of inhibitor concentration. Ki values were calculated from these plots by fitting the data to the equation for competitive inhibition using GraphPad Prism:(2) Vo^′/Vo=Km+[S]/Km+[S]+(Km[I]/Ki)
# E. coli MTAN = system: E. coli MTAN; set-up: method as in PMID 8941345; settings: radioactive enzyme assay; cited from earlier work
# [14] = read-out: Ki (inhibition constant)
# [15] = nucleoside 1 to 20 µM, read-out: Km (Michaelis constant)
compound,measurement,setting,value
"CCC[C@H]1N[C@@H](c2c[nH]c3c(N)ncnc23)[C@H](O)[C@@H]1O [dEt-ImmA, 5′-deoxy-5′-ethyl-immucillin A]",recovery of live spirochetes,"B. burgdorferi N40 [1]; 2 µM and 10 µM, 21 days of subculture in media lacking MTAN inhibitors",no live spirochetes were recovered
same,Inhibitor Activity,"B. burgdorferi N40 [1]; Dose: 2 µM, 10 µM",Bactericidal
same,concentration giving a reduction in bioluminescence compared to the untreated control,B. burgdorferi N40 [1]; after 12 days of incubation of subcultured bacteria,≥ 0.4 µM
same,concentrations at which live spirochetes were recovered,B. burgdorferi N40 [1]; after seven days of treatment,≤ 0.4 µM
same,concentrations that exert bactericidal activity,"B. burgdorferi N40 [1]; after seven days of treatment, bacteriostatic at lower concentrations",≥ 1 µM
same,Ki,Bgp [2]; [14],2.48 nM
same,Ki’ (delayed onset inhibition constant),Bgp [2],0.35 ± 0.02 nM
same,Ki,MtnN [3]; [14],1.48 nM
same,Ki’ (delayed onset inhibition constant),MtnN [3],0.58 ± 0.05 nM
same,Ki,Pfs [4]; [14],10.5 nM
same,Ki’ (delayed onset inhibition constant),Pfs [4],0.53 ± 0.15 nM
"5′-deoxy-5′-methylthioadenosine [MTA, reference compound]",Specific Activity,Bgp [5],1.00 U/mg
same,% Max Specific Activity,Bgp [5],100%
same,Specific Activity,MtnN [6],1.00 U/mg
same,% Max Specific Activity,MtnN [6],100%
same,Specific Activity,Pfs [7],1.70 U/mg
same,% Max Specific Activity,Pfs [7],100%
same,Km,Bgp [8],0.49 µM
same,Km,MtnN [9],9.09 µM
same,Km,Pfs [10],0.61 µM
"CC1(C)S[C@@H]2[C@H](NC(=O)[C@H](N)c3ccccc3)C(=O)N2[C@H]1C(=O)O [ampicillin, reference compound]",IC50 (percent of physiologically compromised B. burgdorferi),[11],~ 0.31 µg/µL of culture
same,concentration at which majority of the spirochetes were non-motile with stripping of the outer membrane,B. burgdorferi N40 [12],≥ 0.625 µg/well
5′-deoxy-5′-methylselenoadenosine [MSeA],Km,Bgp [5]; [15],1.62 µM
same,Specific Activity,Bgp [5],1.79 U/mg
same,% Max Specific Activity,Bgp [5],179%
same,Km,MtnN [6]; [15],1.5 µM
same,Specific Activity,MtnN [6],1.50 U/mg
same,% Max Specific Activity,MtnN [6],150%
same,Km,Pfs [7]; [15],2.12 µM
same,Specific Activity,Pfs [7],0.27 U/mg
same,% Max Specific Activity,Pfs [7],16%
same,specific activities higher than MTA,[13]; Bgp and MtnN,50–79%
same,Km,[13]; range over all three nucleosidases,1.5 to 2.1 µM and 1.5 to 2 µM
same,Inhibitor Activity,B. burgdorferi N40 [1]; Dose: All doses (0.0032–10 µM),Bacteriostatic
same,recovery of spirochetes (bioluminescence comparable with untreated controls),"B. burgdorferi N40 [1]; all concentrations, 12 days of incubation of subcultured bacteria",fully recovered
same,IC50,E. coli MTAN,~4000 nM
